Data published in patent US20170332666A1, “APPLICATION OF P-METHYL BENZOIC ACID OR SALTS THEREOF AS ADDITIVES FOR ANIMAL FEED” (priority 2015, published 2017).
“And” between values parts separate entries of the source, which are not always exact repeats. Equal values may be shown once.

Key:
[1] = test system: weaned pigs; assay: Growth promotion test of weaned pigs with additives in creep feed; format: in vivo, pig (Duroc×Landrace×Large White piglets); conditions: for Average daily weight gain / Diarrhea rate / Feed conversion ratio: 10 days
Description: 140 weaned Duroc×Landrace×Large White piglets aged 28 days with similar body weight and further having an average body weight of 7.61 kg were divided into 14 groups, each with 10 pigs. After adding different concentrations of p-methyl benzoic acid or its calcium, sodium, potassium or zinc salt prepared by the embodiments disclosed herein into the conventional creep feed (excluding acidifying agent) of each group, the pigs were free feeding and drinking during the test period of 10 days, then to collect statistics of the weight gain and the feed conversion ratio as well as the diarrhea rate of test pig in each test group.

[2] = test system: meat-type ducks; assay: Feeding test of meat-type ducks with additives in basic diet; format: in vivo, Cherry Valley ducks; conditions: for Average daily weight gain / Average feed conversion ratio / Survival rate: 2000 ppm in basic diet, 30 days
Description: 300 Cherry Valley ducks aged 1 day were divided into 6 groups with 50 ducks per group. After adding different concentrations of p-methyl benzoic acid or benzoic acid into the same basic diet (without antibiotics) of each group, the Cherry Valley ducks were free feeding and drinking, and continued feeding for 30 days, then to collect statistics of the production performance and the survival rate of test ducks, the test grouping and metered concentrations are shown in Table 3, and the results of the production performance are shown in Table 4.

[3] = test system: grass carps; assay: Growth promotion test in grass carps with additives in feed; format: in vivo, grass carp; conditions: for Feed conversion ratio (FCR) / Final weight / Survival rate SR / Weight gain rate: 3000 ppm in feed, 8 weeks
Method: The test was performed on an aquaculture farm of Guangzhou Insighter Biotechnology CO., LTD, and the test fish is grass carp. Healthy and lively grass carps with the same species and sizes were fed in a large cage for 4 weeks, thereafter used for formal test, and the test system is a small floating cage. The small floating cage and temporary cages were placed in a 3500 square meter pond of the test field. Water depth of the pond was close to 1.5m, and the pond water is fully aerated. When testing, 160 grass carps starved for 1 day were randomly divided into 4 groups, each group with 4 replicates, and each replicate with 10 fish. After the whole weighing, the samples were randomly placed in 16 cages and fed with different test diets. The test diets were self-formulated in accordance with Table 5, and the basic diets of different test groups were adding different growth promoters respectively. The test adopted artificial feeding with food restriction, and the feed intake was adjusted once a week, the feeding levels of two groups were completely consistent (metered by the initial weight), the fish in each group is fed two times in one day (7:30 and 15:00). The test lasted for 8 weeks.

[4] = test system: broilers; assay: Growth promotion test of broilers with acidifying agents in complete formula feed; format: in vivo, broilers (chicken); conditions: for Effect on daily gain (in words) / Effect on feed conversion ratio (in words): 2000 ppm; for Average daily weight gain / Feed conversion ratio: 2000 ppm in complete formula feed, 21 days
Method: 300 broilers (female seedlings) aged 1 day were divided into 6 groups in accordance with Table 6, and each group with 50 broilers. Acidifying agent with different type or concentration was added to the complete formula feed for chickens without any acidifying agents in each group, the broilers were free feeding and drinking during the test period of 21 days and then to collect statistics of the weight gain and the feed conversion ratio of test broiler in each test group.

O=C(O)c1ccccc1 [benzoic acid]
Average daily weight gain ([1]; 2000 ppm in creep feed): 192.3 g and 193.5 g
Diarrhea rate ([1]; 2000 ppm in creep feed): 22.0% and 23.0%
Feed conversion ratio ([1]; 2000 ppm in creep feed): 1.66 and 1.65
Rate of anti-diarrhea as compared to phosphoric acid or citric acid (in words) ([1]; equal concentration (2000 ppm)): increased slightly
Average daily weight gain [2]: 59.7
Average feed conversion ratio [2]: 2.10
Survival rate [2]: 92%
Feed conversion ratio (FCR) [3]: 1.46
Final weight [3]: 585 g
Survival rate SR [3]: 100%
Weight gain rate [3]: 147%

Cc1ccc(C(=O)[O-])cc1.Cc1ccc(C(=O)[O-])cc1.[Ca+2] [calcium p-methyl benzoate]
Effect on diarrhea rate of test pigs (in words) ([1]; 2000 ppm): significantly reduce the diarrhea rate
Improvement of production performance (in words) ([1]; 2000 ppm): significant dose effect
Average daily weight gain ([1]; 2000 ppm in creep feed): 203.6 g
Diarrhea rate ([1]; 2000 ppm in creep feed): 12.0%
Feed conversion ratio ([1]; 2000 ppm in creep feed): 1.54
Effect on diarrhea rate of test pigs (in words) ([1]; 10000 ppm to 20000 ppm): significantly reduce the diarrhea rate
Improvement of production performance (in words) ([1]; 10000 ppm to 20000 ppm): significant dose effect
Growth promotion versus blank control group (in words) [3]: obvious effects on growth promotion
Feed conversion ratio (FCR) [3]: 1.40
Final weight [3]: 612 g
Survival rate SR [3]: 100%
Weight gain rate [3]: 157%

O=C(O)CC(O)(CC(=O)O)C(=O)O [citric acid, reference compound]
Effect on diarrhea rate of test pigs (in words) ([1]; 2000 ppm): no such effects
Improvement of production performance (in words) ([1]; 2000 ppm): no such effects
Average daily weight gain ([1]; 2000 ppm in creep feed): 181.3 g and 180.4 g
Diarrhea rate ([1]; 2000 ppm in creep feed): 31.0% and 26.0%
Feed conversion ratio ([1]; 2000 ppm in creep feed): 1.67 and 1.68
Feed conversion ratio (FCR) [3]: 1.47
Final weight [3]: 582 g
Survival rate SR [3]: 100%
Weight gain rate [3]: 147%
Effect on daily gain (in words) [4]: no such effects
Effect on feed conversion ratio (in words) [4]: no such effects
Average daily weight gain [4]: 19.8 g
Feed conversion ratio [4]: 1.88

O=CO [formic acid, reference compound]
Average daily weight gain ([1]; 2000 ppm in creep feed): 173.4 g
Diarrhea rate ([1]; 2000 ppm in creep feed): 25.0%
Feed conversion ratio ([1]; 2000 ppm in creep feed): 1.65
Average daily weight gain [2]: 58.6
Average feed conversion ratio [2]: 2.11
Survival rate [2]: 93%

Cc1ccc(C(=O)O)cc1 [p-methyl benzoic acid]
Effect on diarrhea rate of test pigs (in words) ([1]; 2000 ppm): significantly reduce the diarrhea rate
Improvement of production performance (in words) ([1]; 2000 ppm): significant dose effect
Average daily weight gain ([1]; 10000 ppm in creep feed): 215.8 g
Diarrhea rate ([1]; 10000 ppm in creep feed): 11.0%
Feed conversion ratio ([1]; 10000 ppm in creep feed): 1.51
Effect on diarrhea rate of test pigs (in words) ([1]; 10000 ppm to 20000 ppm): significantly reduce the diarrhea rate
Improvement of production performance (in words) ([1]; 10000 ppm to 20000 ppm): significant dose effect
Average daily weight gain ([1]; 20000 ppm in creep feed): 221.4 g
Diarrhea rate ([1]; 20000 ppm in creep feed): 9.0%
Feed conversion ratio ([1]; 20000 ppm in creep feed): 1.47
Production performance and survival rate (in words) [2]: greatly improved
Survival rate [2]: 100%
Average daily weight gain [4]: 24.5 g
Feed conversion ratio [4]: 1.76

O=P(O)(O)O [phosphoric acid, reference compound]
Effect on diarrhea rate of test pigs (in words) ([1]; 2000 ppm): no such effects
Improvement of production performance (in words) ([1]; 2000 ppm): no such effects
Average daily weight gain ([1]; 2000 ppm in creep feed): 175.3 g
Diarrhea rate ([1]; 2000 ppm in creep feed): 27.0%
Feed conversion ratio ([1]; 2000 ppm in creep feed): 1.66

Cc1ccc(C(=O)[O-])cc1.[K+] [potassium p-methyl benzoate]
Average daily weight gain ([1]; 2000 ppm in creep feed): 205.8 g
Diarrhea rate ([1]; 2000 ppm in creep feed): 15.0%
Feed conversion ratio ([1]; 2000 ppm in creep feed): 1.58
Effect on diarrhea rate of test pigs (in words) ([1]; 10000 ppm to 20000 ppm): significantly reduce the diarrhea rate
Improvement of production performance (in words) ([1]; 10000 ppm to 20000 ppm): significant dose effect

Cc1ccc(C(=O)[O-])cc1.[Na+] [sodium p-methyl benzoate]
Average daily weight gain ([1]; 2000 ppm in creep feed): 203.7 g
Diarrhea rate ([1]; 2000 ppm in creep feed): 17.0%
Feed conversion ratio ([1]; 2000 ppm in creep feed): 1.55
Effect on diarrhea rate of test pigs (in words) ([1]; 10000 ppm to 20000 ppm): significantly reduce the diarrhea rate
Improvement of production performance (in words) ([1]; 10000 ppm to 20000 ppm): significant dose effect
Effect on daily gain (in words) [4]: significantly increase the daily gain
Effect on feed conversion ratio (in words) [4]: improve the feed conversion ratio
Average daily weight gain [4]: 24.3 g
Feed conversion ratio [4]: 1.79

C/C=C/C=C/C(=O)O [sorbic acid]
Effect on daily gain (in words) [4]: no such effects
Effect on feed conversion ratio (in words) [4]: no such effects
Average daily weight gain [4]: 19.9 g
Feed conversion ratio [4]: 1.89

Cc1ccc(C(=O)[O-])cc1.Cc1ccc(C(=O)[O-])cc1.[Zn+2] [zinc p-methyl benzoate]
Average daily weight gain ([1]; 2000 ppm in creep feed): 201.3 g
Diarrhea rate ([1]; 2000 ppm in creep feed): 15.0%
Feed conversion ratio ([1]; 2000 ppm in creep feed): 1.60
